Assays:
[1] = Metabolic stability in Wistar rat cerebellum assessed as intact tracer at 74 MBq, iv measured at 30 mins post administration by gamma counting; assay type: ADME, organism-based; settings: read-out: Stability
[2] = Metabolic stability in Wistar rat cerebrum assessed as intact tracer at 74 MBq, iv measured at 30 mins post administration by gamma counting; assay type: ADME, organism-based; settings: read-out: Stability
[3] = Metabolic stability in Wistar rat plasma assessed as intact tracer at 74 MBq, iv measured at 30 mins post administration by gamma counting; assay type: ADME, organism-based; settings: read-out: Stability
Rattus norvegicus = test: Biodistribution in Wistar rat urinary system at 22 Mbq, iv measured at 60 mins post administration by gamma counting; assay type: ADME, organism-based, Urine; settings: in vivo, 1 h
Liver = test: Biodistribution in Wistar rat liver at 22 Mbq, iv measured at 60 mins post administration by gamma counting; assay type: ADME, organism-based; settings: in vivo, 1 h
Intestine = test: Biodistribution in Wistar rat intestine at 22 Mbq, iv measured at 60 mins post administration by gamma counting; assay type: ADME, organism-based; settings: in vivo, 1 h
Brain [4] = test: Ratio of SUV in total brain in iv dosed Wistar at 2 mins post administration by gamma counting to SUV in total brain in iv dosed Wistar at 30 mins post administration by gamma counting; assay type: ADME, organism-based; settings: rat, in vivo
Cerebellum [5] = test: Ratio of SUV in cerebellum in iv dosed Wistar at 2 mins post administration by gamma counting to SUV in cerebellum in iv dosed Wistar at 30 mins post administration by gamma counting; assay type: ADME, organism-based; settings: rat, in vivo
Cerebrum [6] = test: Ratio of SUV in cerebrum in iv dosed Wistar at 2 mins post administration by gamma counting to SUV in cerebrum in iv dosed Wistar at 30 mins post administration by gamma counting; assay type: ADME, organism-based; settings: rat, in vivo
Cortex = test: Ratio of SUV in cortex in iv dosed Wistar at 2 mins post administration by gamma counting to SUV in cortex in iv dosed Wistar at 30 mins post administration by gamma counting; assay type: ADME, organism-based; settings: rat, in vivo
Hippocampus = test: Ratio of SUV in hippocampus in iv dosed Wistar at 2 mins post administration by gamma counting to SUV in hippocampus in iv dosed Wistar at 30 mins post administration by gamma counting; assay type: ADME, organism-based; settings: rat, in vivo
Striatum = test: Ratio of SUV in striatum in iv dosed Wistar at 2 mins post administration by gamma counting to SUV in striatum in iv dosed Wistar at 30 mins post administration by gamma counting; assay type: ADME, organism-based; settings: rat, in vivo
Cerebellum [7] = test: Biodistribution in Wistar rat cerebellum at 22 Mbq, iv measured at 2 mins post administration by gamma counting; assay type: ADME, organism-based; settings: in vivo
Cerebrum [8] = test: Biodistribution in Wistar rat cerebrum at 22 Mbq, iv measured at 2 mins post administration by gamma counting; assay type: ADME, organism-based; settings: in vivo
Brain [9] = test: Biodistribution in Wistar rat brain at 22 Mbq, iv measured at 2 mins post administration by gamma counting; assay type: ADME, organism-based; settings: in vivo
[10] = Fraction unbound in human plasma; assay type: ADME, cell-free
[11] = Fraction unbound in rat plasma; assay type: ADME, cell-free
Liver microsomes [12] = test: Drug metabolism in rat liver microsomes assessed as M+O oxidative metabolite; assay type: ADME, Microsome
Liver microsomes [13] = test: Drug metabolism in human liver microsomes assessed as M+O oxidative metabolite; assay type: ADME, Microsome
Liver microsomes [14] = test: Drug metabolism in rat liver microsomes assessed as O-methylated compound derivative; assay type: ADME, Microsome
Liver microsomes [15] = test: Drug metabolism in human liver microsomes assessed as O-methylated compound derivative; assay type: ADME, Microsome
CHO [16] = test: Selectivity ratio for rat mGluR6 to human mGluR2 expressed in CHO cell membranes; assay type: cell-based
CHO [17] = test: Selectivity ratio for human mGluR4 to human mGluR2 expressed in CHO cell membranes; assay type: cell-based
HEK293 [18] = test: Selectivity ratio for human mGluR8 expressed in HEK293 cells to human mGluR2 expressed in CHO cell membranes; assay type: cell-based
HEK293 [19] = test: Selectivity ratio for human mGluR7 expressed in HEK293 cells to human mGluR2 expressed in CHO cell membranes; assay type: cell-based
HEK293 [20] = test: Selectivity ratio for human mGluR5 expressed in HEK293 cells to human mGluR2 expressed in CHO cell membranes; assay type: cell-based
HEK293 [21] = test: Selectivity ratio for human mGluR3 expressed in HEK293 cells to human mGluR2 expressed in CHO cell membranes; assay type: cell-based
HEK293 [22] = test: Selectivity ratio for human mGluR1 expressed in HEK293 cells to human mGluR2 expressed in CHO cell membranes; assay type: cell-based
[23] = molecular target: T1, Metabotropic glutamate receptor 2 (Homo sapiens, UniProt Q14416); test: Displacement of [3H]JNJ-40068782 from human mGLuR2 expressed in CHO cell membrane after 60 mins by liquid scintillation counting; assay type: cell membranes
Target sequence in this assay (Q14416 whole entry): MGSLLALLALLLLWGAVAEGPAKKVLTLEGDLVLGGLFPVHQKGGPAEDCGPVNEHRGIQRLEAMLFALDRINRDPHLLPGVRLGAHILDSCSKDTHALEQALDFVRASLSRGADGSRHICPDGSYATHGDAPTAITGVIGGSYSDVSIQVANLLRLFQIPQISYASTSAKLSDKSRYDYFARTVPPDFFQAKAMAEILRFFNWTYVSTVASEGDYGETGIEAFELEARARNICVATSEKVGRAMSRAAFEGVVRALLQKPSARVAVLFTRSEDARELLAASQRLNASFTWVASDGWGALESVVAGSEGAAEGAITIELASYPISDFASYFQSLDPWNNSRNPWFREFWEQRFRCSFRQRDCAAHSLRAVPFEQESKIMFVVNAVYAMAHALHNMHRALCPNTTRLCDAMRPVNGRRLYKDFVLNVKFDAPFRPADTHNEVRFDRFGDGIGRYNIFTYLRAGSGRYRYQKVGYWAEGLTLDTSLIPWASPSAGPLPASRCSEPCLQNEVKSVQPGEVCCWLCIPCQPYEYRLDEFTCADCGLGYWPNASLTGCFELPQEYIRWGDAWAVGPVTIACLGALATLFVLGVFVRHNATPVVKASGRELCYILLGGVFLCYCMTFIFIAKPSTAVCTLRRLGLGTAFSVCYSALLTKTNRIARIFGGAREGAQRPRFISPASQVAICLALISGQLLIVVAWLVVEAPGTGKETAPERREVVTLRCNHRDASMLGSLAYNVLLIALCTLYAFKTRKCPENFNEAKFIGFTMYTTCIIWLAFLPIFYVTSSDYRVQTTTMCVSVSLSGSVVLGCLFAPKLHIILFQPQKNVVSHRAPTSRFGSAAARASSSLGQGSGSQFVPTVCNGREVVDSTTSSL

[24] = molecular target: T1, Metabotropic glutamate receptor 2; test: Agonist activity at human mGLuR2 expressed in CHO cell membrane assessed as […] after 30 mins by scintillation counting relative to control; assay type: functional, cell membranes
Target sequence in this assay (Q14416 19-872 limits assumed): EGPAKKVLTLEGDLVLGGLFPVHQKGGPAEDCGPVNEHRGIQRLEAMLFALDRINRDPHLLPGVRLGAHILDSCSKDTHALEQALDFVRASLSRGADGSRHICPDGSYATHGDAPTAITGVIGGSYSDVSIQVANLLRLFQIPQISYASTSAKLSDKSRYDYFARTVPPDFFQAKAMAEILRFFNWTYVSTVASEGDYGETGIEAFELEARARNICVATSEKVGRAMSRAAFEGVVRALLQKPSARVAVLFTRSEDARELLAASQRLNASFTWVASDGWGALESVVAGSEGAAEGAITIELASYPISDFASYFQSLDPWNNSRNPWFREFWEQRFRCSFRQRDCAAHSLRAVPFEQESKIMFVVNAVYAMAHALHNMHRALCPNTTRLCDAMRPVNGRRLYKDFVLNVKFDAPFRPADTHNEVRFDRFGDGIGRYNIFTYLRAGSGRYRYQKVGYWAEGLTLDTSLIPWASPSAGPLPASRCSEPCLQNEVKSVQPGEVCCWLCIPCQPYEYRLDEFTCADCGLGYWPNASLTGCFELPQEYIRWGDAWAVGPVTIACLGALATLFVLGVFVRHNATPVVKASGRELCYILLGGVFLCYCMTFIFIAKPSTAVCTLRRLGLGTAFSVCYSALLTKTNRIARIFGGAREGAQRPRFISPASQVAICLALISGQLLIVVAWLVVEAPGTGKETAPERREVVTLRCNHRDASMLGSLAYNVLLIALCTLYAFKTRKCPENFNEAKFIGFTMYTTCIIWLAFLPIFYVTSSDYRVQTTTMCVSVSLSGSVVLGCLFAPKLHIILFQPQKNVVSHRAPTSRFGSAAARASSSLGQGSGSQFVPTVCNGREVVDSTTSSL

[25] = molecular target: T2, Sodium-dependent dopamine transporter (Homo sapiens, UniProt Q01959); test: Binding affinity to DAT
T2 sequence (Q01959 whole entry): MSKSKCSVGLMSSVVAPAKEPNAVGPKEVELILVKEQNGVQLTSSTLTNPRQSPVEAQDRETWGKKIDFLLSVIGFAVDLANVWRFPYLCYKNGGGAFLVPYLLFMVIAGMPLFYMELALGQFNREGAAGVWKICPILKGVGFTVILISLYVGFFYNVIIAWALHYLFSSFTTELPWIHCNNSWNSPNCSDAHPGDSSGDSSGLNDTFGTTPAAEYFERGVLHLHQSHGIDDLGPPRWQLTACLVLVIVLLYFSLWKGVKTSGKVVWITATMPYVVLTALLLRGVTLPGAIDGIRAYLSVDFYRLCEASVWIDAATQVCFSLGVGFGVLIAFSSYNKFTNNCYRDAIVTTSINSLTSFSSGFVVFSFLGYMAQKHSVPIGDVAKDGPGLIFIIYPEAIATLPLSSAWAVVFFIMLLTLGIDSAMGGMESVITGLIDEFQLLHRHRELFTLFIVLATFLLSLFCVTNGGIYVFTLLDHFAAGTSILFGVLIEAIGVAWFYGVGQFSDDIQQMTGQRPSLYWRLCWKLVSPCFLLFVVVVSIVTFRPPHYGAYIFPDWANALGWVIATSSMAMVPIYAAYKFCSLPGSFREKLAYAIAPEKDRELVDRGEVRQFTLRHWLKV

D(1A) dopamine receptor [26] = molecular target: T3, D(1A) dopamine receptor (Homo sapiens, UniProt P21728); test: Binding affinity to dopamine D1 receptor
T3 sequence (P21728 whole entry): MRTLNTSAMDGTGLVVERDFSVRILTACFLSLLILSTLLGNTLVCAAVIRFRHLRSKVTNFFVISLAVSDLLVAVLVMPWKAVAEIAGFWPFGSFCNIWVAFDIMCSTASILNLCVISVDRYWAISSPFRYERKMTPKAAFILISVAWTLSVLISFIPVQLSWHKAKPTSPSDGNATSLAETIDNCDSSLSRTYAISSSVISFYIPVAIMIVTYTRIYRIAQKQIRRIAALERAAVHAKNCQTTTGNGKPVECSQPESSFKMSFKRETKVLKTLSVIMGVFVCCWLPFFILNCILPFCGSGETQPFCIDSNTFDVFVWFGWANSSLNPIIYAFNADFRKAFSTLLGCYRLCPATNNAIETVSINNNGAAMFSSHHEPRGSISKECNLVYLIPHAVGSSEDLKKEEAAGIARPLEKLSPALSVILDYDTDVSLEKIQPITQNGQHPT

[27] = molecular target: T2, Sodium-dependent dopamine transporter; test: Binding affinity to DAT at 10 uM by CEREP assay
D(1A) dopamine receptor [28] = molecular target: T3, D(1A) dopamine receptor; test: Binding affinity to dopamine D1 receptor at 10 uM by CEREP assay
[29] = molecular target: T1, Metabotropic glutamate receptor 2; test: Agonist activity at human mGLuR2 expressed in CHO cell membrane assessed as […] after 30 mins by scintillation counting; assay type: functional, cell membranes; settings: read-out: EC50
Target sequence in this assay (Q14416 whole entry): as the sequence (Q14416 whole entry) above

| Compound | remaining at 0.5 h [1] | remaining at 0.5 h [2] | remaining at 0.5 h [3] | Drug uptake (Rattus norvegicus) | Ratio (Brain [4]) | Ratio (Cerebellum [5]) | Ratio (Cerebrum [6]) | Ratio (Cortex) | Ratio (Hippocampus) | Ratio (Striatum) | Drug uptake (Cerebellum [7]) | Drug uptake (Cerebrum [8]) | Drug uptake (Brain [9]) | fraction unbound [10] | fraction unbound [11] | Drug metabolism (Liver microsomes [12]) | Drug metabolism (Liver microsomes [13]) | Drug metabolism (Liver microsomes [14]) | Drug metabolism (Liver microsomes [15]) | Emax [24] | also measured |
| --- | --- | --- | --- | --- | --- | --- | --- | --- | --- | --- | --- | --- | --- | --- | --- | --- | --- | --- | --- | --- | --- |
| [11CH3]Oc1cc(F)cc(F)c1C1CCN(c2ccn3c(CC4CC4)nnc3c2Cl)CC1 | 95.5% | 92.9% | 30.8% | Active | 0.88 | 0.77 | 0.72 | 0.66 | 0.71 | 0.67 | 0.18 %ID | 0.53 %ID | 0.75 %ID | – | – | – | – | – | – | – | Drug uptake (Liver): Active; Drug uptake (Intestine): Active |
| [11CH3]Oc1c(F)ccc(F)c1C1CCN(c2ccn3c(CC4CC4)nnc3c2C(F)(F)F)CC1 | – | – | – | – | 1.08 | 0.99 | 0.98 | 1.04 | 1.01 | 0.86 | 0.17 %ID | 0.54 %ID | 0.75 %ID | – | – | – | – | – | – | – | – |
| COc1c(F)cccc1C1CCN(c2ccn3c(CC(F)(F)F)nnc3c2C#N)CC1 | – | – | – | – | – | – | – | – | – | – | – | – | – | 0.047 | 0.04 | Active | Active | Active | Active | 306% | EC50 [29]: 31 nM |

Now from value to molecule, other results behind:

| remaining at 0.5 h [1] | remaining at 0.5 h [2] | remaining at 0.5 h [3] | Drug uptake (Rattus norvegicus) | Ratio (Brain [4]) | Ratio (Cerebellum [5]) | Ratio (Cerebrum [6]) | Ratio (Cortex) | Ratio (Hippocampus) | Ratio (Striatum) | Drug uptake (Cerebellum [7]) | Drug uptake (Cerebrum [8]) | Drug uptake (Brain [9]) | fraction unbound [10] | fraction unbound [11] | Drug metabolism (Liver microsomes [12]) | Drug metabolism (Liver microsomes [13]) | Drug metabolism (Liver microsomes [14]) | Drug metabolism (Liver microsomes [15]) | Emax [24] | Compound | also measured |
| --- | --- | --- | --- | --- | --- | --- | --- | --- | --- | --- | --- | --- | --- | --- | --- | --- | --- | --- | --- | --- | --- |
| 96.4% | 93.1% | 45.5% | Active | 0.93 | 0.95 | 0.84 | 0.84 | 1.19 | 0.99 | 0.15 %ID | 0.46 %ID | 0.64 %ID | – | – | – | – | – | – | – | [11CH3]Oc1ccc(F)c(F)c1C1CCN(c2ccn3c(CC4CC4)nnc3c2Cl)CC1 | Drug uptake (Liver): Active; Drug uptake (Intestine): Active |
| – | – | – | – | – | – | – | – | – | – | – | – | – | < 0.01 | < 0.01 | Active | Active | Active | Active | 258% | COc1ccc(F)c(F)c1C1CCN(c2ccn3c(CC4CC4)nnc3c2Cl)CC1 | Selectivity ratio (CHO [16]): > 350; Selectivity ratio (CHO [17]): > 350; Selectivity ratio (HEK293 [18]): > 350; Selectivity ratio (HEK293 [19]): > 350; Selectivity ratio (HEK293 [20]): > 350; Selectivity ratio (HEK293 [21]): 70; Selectivity ratio (HEK293 [22]): > 350; IC50 [23]: 7.3 nM |
| 92.7% | 92.4% | 41% | Active | 0.79 | 0.63 | 0.83 | 0.88 | 0.66 | 0.63 | 0.1 %ID | 0.45 %ID | 0.58 %ID | – | – | – | – | – | – | – | [11CH3]Oc1ccc(F)cc1C1CCN(c2ccn3c(CC4CC4)nnc3c2Cl)CC1 | Drug uptake (Liver): Active; Drug uptake (Intestine): Active |
| – | – | – | – | – | – | – | – | – | – | – | – | – | < 0.01 | < 0.01 | Active | Active | Active | Active | 336% | COc1c(F)cccc1C1CCN(c2ccn3c(CC4CC4)nnc3c2Cl)CC1 | – |
| – | – | – | – | – | – | – | – | – | – | – | – | – | < 0.01 | < 0.01 | Active | Active | Active | Active | 282% | COc1c(F)ccc(F)c1C1CCN(c2ccn3c(CC4CC4)nnc3c2Cl)CC1 | Ki [25]: > 8500 nM; Ki (D(1A) dopamine receptor [26]): ≥ 6200 nM; Activity [27]: 52%; Activity (D(1A) dopamine receptor [28]): 76%; Selectivity ratio (CHO [16]): > 350; Selectivity ratio (CHO [17]): > 350; Selectivity ratio (HEK293 [18]): > 350; Selectivity ratio (HEK293 [19]): > 350; Selectivity ratio (HEK293 [20]): > 350; Selectivity ratio (HEK293 [21]): > 350; Selectivity ratio (HEK293 [22]): > 350; IC50 [23]: 9.23 nM; EC50 [29]: 7.5 nM |

From ChEMBL document CHEMBL2202996, “Synthesis, evaluation, and radiolabeling of new potent positive allosteric modulators of the metabotropic glutamate receptor 2 as potential tracers for positron emission tomography imaging” (J Med Chem, 2012)
